Laboratory results published in ChEMBL document CHEMBL1145450, “Platinum complexes can inhibit matrix metalloproteinase activity: platinum-diethyl[(methylsulfinyl)methyl]phosphonate complexes as inhibitors of matrix metalloproteinases 2, 3, 9, and 12” (J Med Chem, 2007).

Legend:
[1] = molecular target: Macrophage metalloelastase (Homo sapiens, UniProt P39900); test: Inhibition of human recombinant MMP12 after 1 hr
[2] = molecular target: 72 kDa type IV collagenase (Homo sapiens, UniProt P08253); test: Inhibition of human recombinant MMP2 after 1 hr
Chain of 72 kDa type IV collagenase (P08253 whole entry): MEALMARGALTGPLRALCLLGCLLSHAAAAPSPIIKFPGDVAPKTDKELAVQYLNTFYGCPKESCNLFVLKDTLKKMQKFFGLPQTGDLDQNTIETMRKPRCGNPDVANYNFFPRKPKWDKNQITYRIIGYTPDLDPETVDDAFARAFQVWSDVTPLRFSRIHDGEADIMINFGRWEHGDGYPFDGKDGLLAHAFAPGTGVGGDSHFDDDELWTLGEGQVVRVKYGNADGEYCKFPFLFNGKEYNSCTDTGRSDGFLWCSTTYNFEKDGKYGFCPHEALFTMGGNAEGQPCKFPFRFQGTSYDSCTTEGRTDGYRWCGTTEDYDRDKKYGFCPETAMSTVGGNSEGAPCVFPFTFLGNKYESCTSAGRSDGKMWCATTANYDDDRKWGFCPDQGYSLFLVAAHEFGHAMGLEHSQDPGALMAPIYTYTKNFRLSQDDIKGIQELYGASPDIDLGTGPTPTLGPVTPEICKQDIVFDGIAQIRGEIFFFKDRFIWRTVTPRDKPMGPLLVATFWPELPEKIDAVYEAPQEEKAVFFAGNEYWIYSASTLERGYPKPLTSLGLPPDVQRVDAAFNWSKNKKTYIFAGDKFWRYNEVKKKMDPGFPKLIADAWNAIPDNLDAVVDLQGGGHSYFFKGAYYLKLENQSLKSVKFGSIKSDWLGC

Stromelysin-1 = Stromelysin-1 (Homo sapiens, UniProt P08254); test: Inhibition of human recombinant MMP3 after 1 hr
Chain of Stromelysin-1 (P08254 whole entry): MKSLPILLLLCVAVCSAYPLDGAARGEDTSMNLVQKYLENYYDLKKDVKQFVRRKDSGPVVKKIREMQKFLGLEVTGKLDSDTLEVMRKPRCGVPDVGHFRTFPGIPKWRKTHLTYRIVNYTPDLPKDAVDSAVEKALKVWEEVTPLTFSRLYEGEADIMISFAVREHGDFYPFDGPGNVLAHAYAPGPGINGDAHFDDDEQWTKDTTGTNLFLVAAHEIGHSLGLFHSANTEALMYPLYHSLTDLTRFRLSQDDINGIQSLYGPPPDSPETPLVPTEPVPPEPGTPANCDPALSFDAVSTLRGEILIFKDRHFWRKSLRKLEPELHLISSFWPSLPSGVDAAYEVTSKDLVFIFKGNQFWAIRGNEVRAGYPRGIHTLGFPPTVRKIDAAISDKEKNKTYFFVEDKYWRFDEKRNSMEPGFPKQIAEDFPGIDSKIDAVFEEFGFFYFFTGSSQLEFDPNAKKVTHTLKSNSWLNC

[3] = molecular target: Matrix metalloproteinase-9 (Homo sapiens, UniProt P14780); test: Inhibition of human recombinant MMP9 after 1 hr
Chain of Matrix metalloproteinase-9 (P14780 whole entry): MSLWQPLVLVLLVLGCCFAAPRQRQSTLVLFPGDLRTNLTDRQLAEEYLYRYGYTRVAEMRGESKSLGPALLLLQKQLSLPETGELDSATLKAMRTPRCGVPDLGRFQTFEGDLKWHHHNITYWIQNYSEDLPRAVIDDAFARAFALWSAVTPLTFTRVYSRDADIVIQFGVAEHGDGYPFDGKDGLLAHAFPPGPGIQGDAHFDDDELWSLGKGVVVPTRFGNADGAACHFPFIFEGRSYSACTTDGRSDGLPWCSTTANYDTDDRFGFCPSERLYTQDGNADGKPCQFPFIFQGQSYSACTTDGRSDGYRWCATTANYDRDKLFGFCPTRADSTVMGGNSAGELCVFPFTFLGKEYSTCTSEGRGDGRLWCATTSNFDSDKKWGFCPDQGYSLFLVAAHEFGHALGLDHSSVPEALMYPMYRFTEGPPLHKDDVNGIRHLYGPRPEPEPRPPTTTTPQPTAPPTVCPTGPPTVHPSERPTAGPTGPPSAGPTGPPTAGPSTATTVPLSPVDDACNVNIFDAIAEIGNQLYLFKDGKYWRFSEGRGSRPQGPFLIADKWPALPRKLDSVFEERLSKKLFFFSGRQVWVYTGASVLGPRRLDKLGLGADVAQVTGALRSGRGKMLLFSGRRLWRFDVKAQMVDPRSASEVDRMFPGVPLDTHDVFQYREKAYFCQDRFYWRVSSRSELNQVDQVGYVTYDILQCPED

Chain of Macrophage metalloelastase (P39900 whole entry): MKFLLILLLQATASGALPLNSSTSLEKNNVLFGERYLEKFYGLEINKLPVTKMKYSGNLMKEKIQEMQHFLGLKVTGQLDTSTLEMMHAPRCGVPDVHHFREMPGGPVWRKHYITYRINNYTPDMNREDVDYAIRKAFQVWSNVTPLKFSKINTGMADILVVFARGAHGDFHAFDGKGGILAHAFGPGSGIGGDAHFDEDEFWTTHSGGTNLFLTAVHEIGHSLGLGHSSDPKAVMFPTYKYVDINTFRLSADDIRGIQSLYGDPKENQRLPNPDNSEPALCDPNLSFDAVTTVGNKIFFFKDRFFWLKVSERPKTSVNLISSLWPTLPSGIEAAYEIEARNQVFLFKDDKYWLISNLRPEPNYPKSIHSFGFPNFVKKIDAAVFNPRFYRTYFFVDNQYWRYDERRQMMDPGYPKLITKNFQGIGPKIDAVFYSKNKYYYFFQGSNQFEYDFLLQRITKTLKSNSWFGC

IC50 [1]: 121 µM
IC50 [2]: 145 µM
IC50 (Stromelysin-1): 300 µM
IC50 [3]: 320 µM
Compound: O=P(O)(O)C(Cl)(Cl)P(=O)(O)O [CLODRONIC ACID]
